Experimental findings from US20240368664A1, “LIVE YEAST BIOSENSORS AND METHODS OF USE THEREOF” (priority 2021, published 2024) are described below.

The test system of data set [1] is Aspergillus spp and S. cerevisiae GPCRs. Type of data set: cell-based. To be noted: 40 μM peptide. How it is done:
FIGS. 6A-6B show Aspergillus spp peptide cross-reactivity with Aspergillus spp GPCRs. […] The test concentration was set at 40 μM of a given peptide ligand.
Next, 13 GPCRs of all genome-mined Aspergillus species, including A. fumigatus from Example 1 and S. cerevisiae, along with inducible fluorescent readout were integrated into optimized parent strain. S. cerevisiae was included to test cross-reactivity with S. cerevisiae GPCR and peptide, since this peptide/GPCR pair will be used for building multi-cellular amplification communities. Then, each strain was activated with all Aspergillus peptides and S. cerevisiae peptide (FIG. 6A). Most of the Aspergillus GPCRs were responsive to at least one peptide, except A. terreus, A. flavus/A. oryzae (same GPCR sequence), A. niger and A. nidulans which were not responsive to any tested peptide. […] The majority of peptides have the same sequence (A. fischeri, A. fumigatus, A. lentulus, A. novofumigatus, A. udagawae and A. viridinutans) and the other active peptides differ only in the third amino acid position from N-terminus (A. clavatus, A. flavus and A. oryzae).

The target of data set [2] is T1, Candida parapsilosis pheromone GPCR CpSte2 (native) (Candida parapsilosis).
T1 sequence: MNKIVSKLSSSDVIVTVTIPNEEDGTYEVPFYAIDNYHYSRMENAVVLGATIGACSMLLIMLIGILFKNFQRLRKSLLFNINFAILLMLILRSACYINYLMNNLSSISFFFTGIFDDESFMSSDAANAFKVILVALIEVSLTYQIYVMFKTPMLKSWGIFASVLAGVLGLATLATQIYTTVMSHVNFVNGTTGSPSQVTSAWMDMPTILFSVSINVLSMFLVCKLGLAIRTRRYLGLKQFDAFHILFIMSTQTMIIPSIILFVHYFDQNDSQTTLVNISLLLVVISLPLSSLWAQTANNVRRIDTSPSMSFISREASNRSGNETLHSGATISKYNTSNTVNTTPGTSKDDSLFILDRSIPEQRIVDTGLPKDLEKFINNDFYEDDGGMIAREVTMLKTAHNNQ
Kind of data set: cell-based or functional assay.

Data set [3] can be described thus: Cyclic voltammetry of peptides and copper-peptide complexes. Type of data set: physicochemical. The following applies: for potential peaks in cyclic voltammogram: 500 μM peptide in 10 mM KCl, scan rates 0.2, 0.1, 0.05 V/s; for redox potential peak of the Cu2+ complex: 1 mM tripeptide, 1 mM CuCl2, 50 mM Tris/HCl (pH 7.4), 0.1 M NaClO4, glassy carbon, 0.3 V/s.
The target of data set [4] is T2, Candida albicans pheromone GPCR CaSte2 (Candida albicans).
T2 sequence: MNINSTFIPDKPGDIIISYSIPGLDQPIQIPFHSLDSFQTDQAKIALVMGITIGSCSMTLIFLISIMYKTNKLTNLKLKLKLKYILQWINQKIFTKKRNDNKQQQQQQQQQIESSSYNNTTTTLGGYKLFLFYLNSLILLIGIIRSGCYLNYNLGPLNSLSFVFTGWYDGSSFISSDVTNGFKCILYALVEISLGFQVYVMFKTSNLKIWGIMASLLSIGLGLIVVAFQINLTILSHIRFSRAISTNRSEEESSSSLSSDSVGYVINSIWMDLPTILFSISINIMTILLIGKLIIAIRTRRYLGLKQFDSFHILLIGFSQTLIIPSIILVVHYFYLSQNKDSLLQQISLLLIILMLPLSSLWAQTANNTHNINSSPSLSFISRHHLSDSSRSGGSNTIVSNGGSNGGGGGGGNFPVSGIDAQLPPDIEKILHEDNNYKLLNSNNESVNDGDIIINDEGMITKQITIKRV
Kind of data set: cell-based or functional assay.

Data set [5] has the same target. Briefly: cell-based or functional assay. More on the design: EC50 compared to the native CaPep (orders of magnitude): unit not given beside the values.
Data set [6] in a line: Metal-binding peptide absorbance scan. The format is physicochemical.
Data set [7] deals with SoSte2 with peptide proteases. The format is cell-based, Schizosaccharomyces octosporus.
The target in data set [8] is T3, Botrytis cinerea cognate pheromone receptor (BcSte2) (Botrytis cinerea).
T3 sequence: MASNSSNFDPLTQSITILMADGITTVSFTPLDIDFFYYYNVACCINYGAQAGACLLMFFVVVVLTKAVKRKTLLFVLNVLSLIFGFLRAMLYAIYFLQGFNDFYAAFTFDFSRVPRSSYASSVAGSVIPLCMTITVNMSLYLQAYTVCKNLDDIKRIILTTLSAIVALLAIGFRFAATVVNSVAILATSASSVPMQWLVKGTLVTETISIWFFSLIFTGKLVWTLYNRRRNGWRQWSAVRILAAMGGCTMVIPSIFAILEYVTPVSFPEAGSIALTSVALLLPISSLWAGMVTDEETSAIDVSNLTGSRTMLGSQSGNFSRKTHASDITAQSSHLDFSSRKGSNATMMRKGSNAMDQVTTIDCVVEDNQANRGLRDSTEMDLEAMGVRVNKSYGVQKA
Kind of data set: cell-based or functional assay.

For data set [9], the target named is SpSte2 with peptide proteases (Schizosaccharomyces pombe, UniProt Q00619). Briefly: SpSte2 biosensor dose-response with complementary and non-complementary proteases. Type of data set: cell-based.
A further data set relates to CpSte2. Type of data set: cell-based, Candida parapsilosis.
A further data set has as its target ScSte2 (Saccharomyces cerevisiae, UniProt D6VTK4). Kind of data set: ScSte2 biosensor dose-response, ymTurquoise2 readout, no protease (incl. ScPep alanine scan, yTC391). The following applies: Hill function best-fit ± standard error. The format is cell-based.
For data set [10], the target named is ScSte2 with protease ScBar1 (Saccharomyces cerevisiae, UniProt D6VTK4). Type of data set: cell-based.
Data set [11] has as its target T4, Candida albicans pheromone GPCR CaSte2 (Candida albicans).
T4 chain: T2 sequence
Briefly: cell-based or functional assay.

Setting [12] is: 1 mM copper, 1 mM peptide, 50 mM Tris/HCl, NaClO4 buffer.

Broadly, the EC50 is the concentration that produces a half-maximal response.

“And” between values parts separate entries of the source, which are not always exact repeats. Identical values can stand only once. Like-named read-outs stand apart in the source and are kept apart here. No end group written: not given here. Bounds are passed on as bounds.

Chain of SpSte2 with peptide proteases (Q00619 whole entry): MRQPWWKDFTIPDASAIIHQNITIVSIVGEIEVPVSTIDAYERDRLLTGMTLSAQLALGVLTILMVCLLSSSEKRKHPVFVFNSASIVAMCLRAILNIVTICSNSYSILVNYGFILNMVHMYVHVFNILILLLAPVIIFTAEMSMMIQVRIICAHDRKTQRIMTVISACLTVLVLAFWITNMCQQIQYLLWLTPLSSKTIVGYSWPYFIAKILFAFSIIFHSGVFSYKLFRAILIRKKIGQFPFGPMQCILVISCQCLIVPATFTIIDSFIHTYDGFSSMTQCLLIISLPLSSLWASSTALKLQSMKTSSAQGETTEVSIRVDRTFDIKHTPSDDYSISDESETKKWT
Chain of ScSte2 (D6VTK4 whole entry): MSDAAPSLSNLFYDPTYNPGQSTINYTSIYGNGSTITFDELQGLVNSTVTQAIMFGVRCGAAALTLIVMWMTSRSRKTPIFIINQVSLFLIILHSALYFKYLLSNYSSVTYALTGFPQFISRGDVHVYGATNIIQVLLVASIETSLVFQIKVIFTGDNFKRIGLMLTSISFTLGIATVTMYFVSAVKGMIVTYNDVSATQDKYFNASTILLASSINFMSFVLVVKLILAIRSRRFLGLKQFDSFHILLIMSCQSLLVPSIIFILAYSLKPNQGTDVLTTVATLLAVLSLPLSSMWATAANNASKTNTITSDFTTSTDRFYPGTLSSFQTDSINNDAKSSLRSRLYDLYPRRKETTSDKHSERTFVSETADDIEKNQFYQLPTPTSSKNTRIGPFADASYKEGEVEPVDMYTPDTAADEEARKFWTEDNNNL
Chain of ScSte2 with protease ScBar1 (D6VTK4 whole entry): as above

Take WCVLPGQPC [A. niger peptide]: the “activation of tested GPCRs” value in data set [1] is reported as “did not activate any tested GPCR”.

Regarding “Candida parapsilosis cognate peptide (CpPep)”, in data set [2], the EC50, mCherry, yMJ194 is 3 nM; the EC50, mCherry, yTC453 stood at 9 nM; the maximal activation, mCherry, yMJ194 came out at 250 A.U; the maximal activation, mCherry, yTC453 came out at 3300 A.U.

With “AfPep: natural fungal peptide containing two cysteine residues (WCHLPGQGC; Synthetic: AfPep)”, in data set [3], the “potential peaks in cyclic voltammogram” value is “None of the tested peptides showed any unique and distinguishable potential peaks”.

As for CaPep9A10A (peptide), in data set [4], the LogEC50 was -4.7 log M and -4.6 log M; the Top is 570 A.U. and 510 A.U. Further, in data set [5], the EC50 compared to the native CaPep (orders of magnitude) is 2.

For CaPep12A13A (peptide), in data set [4], the LogEC50 was -4.8 log M and -4.5 log M; the Top came to 170 A.U. Also, in [5], the EC50 compared to the native CaPep (orders of magnitude) was found to be 2.

Turning to CaPep11A (peptide), in data set [4], the Top was 180 A.U. and 120 A.U. The molecule also came in with a decrease in maximal activation compared to the native CaPep in data set [5] of 50%.

Take GHK: the “absorbance maxima of copper complexes” value in data set [6] (setting [12]) was 620 nm. The “absorbance peaks of nickel complexes” value in data set [6] (nickel complexes) is “did not show absorbance peaks”.

For “DAHK (UniProt P02768 25-28, looked up, fragment)”, the “absorbance maxima of copper complexes” value in [6] (setting [12]) came out at 520 nm.

On to TYEDFLRVYKNWWSFQNPDRPDL [SoPep], for which, in data set [7], the “cleavage by ScBar1 and CaBar1” value is “did not cleave”; the “shift of apparent EC50 by non-complementary proteases” value is “between half and one order of magnitude”; the “shift of apparent EC50 towards higher concentration by complementary protease” value is “one and a half orders of magnitude”.

`O.O.[Cl][Cu][Cl]` [Copper, CuCl2×2H2O]: the absorbance peak in [6] (copper alone in Tris/HCl buffer) is listed as 630 nm.

In data set [8], “BcPep with its second cysteine changed into serine (peptide)” returned a maximal activation compared to the original BcPep of 4 fold.

Regarding AAH, the “absorbance maxima of copper complexes” value in data set [6] (setting [12]) came out at 520 nm.

The molecule TYADFLRAYQSWNTFVNPDRPNL [SpPep] came in with an EC50 in data set [9] of more than 100000 nM. Moreover, the “cleavage by ScBar1 and CaBar1” value in [9] (ScBar1, CaBar1) is “did not cleave”. Moreover, the “shift of apparent EC50 by non-complementary proteases” value in data set [9] (SjSxa2 and SoSxa2) was “between half and one order of magnitude”. Besides, in [9] (SpSxa2, within measured concentration range), the “response with complementary protease” value is given as “practically completely attenuated the response”.

In the case of KPHWTTYGYYEPQ [CpPep], the basal expression with CpSte2 (optimized strain yTC453) is given as approximately 0 A.U. Further, in the data set on CpSte2 (yMJ194, natural pathway), the EC50 was approximately 3 nM and the maximal activation was approximately 250 A.U. In the data set on CpSte2 (yTC453, optimized), the EC50 was approximately 9 nM and the maximal activation was ~3,300 A.U.

Turning to KKH, in data set [6] (setting [12]), the “absorbance maxima of copper complexes” value was determined as 620 nm.

Take CaPep12A (peptide): in data set [4], the LogEC50 is -5.3 log M and -5 log M; the Top is 580 A.U. and 540 A.U. For the same molecule, in [5], the EC50 compared to the native CaPep (orders of magnitude) came out at 2.

As to WHWLQLAPGQPMY [ScPep7A], the “Hill Slope” value on ScSte2 is reported as 2.6 ± 0.4. In data set [10], the Bottom worked out at 5.7 ± 1.3 A.U, the “Hill Slope” value is recorded as 1.7 ± 0.1, the LogEC50 is on record as −5.4 ± 0.1 M and the Top was found to be 380 ± 10 A.U.

Consider WHWLQLKPGAPMY [ScPep10A], for which, at ScSte2, the “Hill Slope” value is 5.3 ± 3.7. Besides, in data set [10], the Bottom is 8.3 ± 1.6 A.U, the “Hill Slope” value is 1.8 ± 0.1, the LogEC50 is on record as −5.2 ± 0.1 M and the Top was determined as 420 ± 10 A.U.

Regarding “BcPep with its first cysteine changed into serine (peptide)”, the maximal activation compared to the original BcPep in data set [8] amounted to 4 fold.

For AHWLQLKPGQPMY [ScPep1A], the “Hill Slope” value at ScSte2 was 3.4 ± 0.8. Moreover, in [10], the Bottom is −3.1 ± 5.8 A.U, the “Hill Slope” value was 0.76 ± 0.06, the LogEC50 is −5.9 ± 0.1 M and the Top is given as 350 ± 10 A.U.

On to His-His-Trp, for which the “redox potential peak of the Cu2+ complex” value in data set [3] came out at 0.8 V. The “absorbance maxima of copper complexes” value in data set [6] (setting [12]) is 620 nm. Further, in [6] (nickel complexes), the “absorbance peaks of nickel complexes” value was “did not show absorbance peaks”.

Regarding WHALQLKPGQPMY [ScPep3A], the “Hill Slope” value on ScSte2 stood at 2.5 ± 0.1. Also, in data set [10], the Bottom is reported as 6.4 ± 2.6 A.U, the “Hill Slope” value was 0.74 ± 0.05, the LogEC50 was −4.6 ± 0.1 M and the Top came to 370 ± 20 A.U.

As to WHWLQLKPGQAMY [ScPep11A], the “Hill Slope” value on ScSte2 worked out at 4.6 ± 1.3. Further, in data set [10], the Bottom is 8.0 ± 2.5 A.U, the “Hill Slope” value is reported as 1.5 ± 0.1, the LogEC50 was −5.6 ± 0.1 M and the Top stood at 410 ± 10 A.U.

For the molecule “GWIGRCGVPGSSC [BcomPep, Baudoinia compniacensis mating peptide]”, the “potential peaks in cyclic voltammogram” value in [3] was “None of the tested peptides showed any unique and distinguishable potential peaks”.

Regarding CaPep10A (peptide), in [4], the LogEC50 was -4.6 log M and -4.2 log M; the Top was 180 A.U. and 98 A.U. Also, in data set [5], the EC50 compared to the native CaPep (orders of magnitude) was 2.

With PHGGGWGQ, in [6], the “absorbance maxima of copper complexes” value is 620 nm and the “absorbance peaks of nickel complexes” value is reported as “did not show absorbance peaks”.

With His-Ala-His, the “redox potential peak of the Cu2+ complex” value in [3] was determined as 1.1 V.

WHWLALKPGQPMY [ScPep5A]: the “Hill Slope” value on ScSte2 came to 3.4 ± 0.3. Further, in data set [10], the Bottom is reported as 0.52 ± 8.7 A.U, the “Hill Slope” value was 1.2 ± 0.2, the LogEC50 is −6.3 ± 0.1 M and the Top stood at 340 ± 10 A.U.

Take WHWLQLKPAQPMY [ScPep9A]: the “Hill Slope” value on ScSte2 turned out to be 5.0 ± 1.3. Also, in data set [10], the Bottom is given as 3.7 ± 2.1 A.U, the “Hill Slope” value is 1.2 ± 0.1, the LogEC50 is recorded as −4.8 ± 0.2 M and the Top is on record as 440 ± 10 A.U.

GARLTNFGYFEPG (modifications not checked) [CaPep2A]: in data set [11], the EC50, ymTurquoise2, strain with the protease CaBar1 stood at 40 nM; the EC50, ymTurquoise2, strain without the protease turned out to be 50 nM; the LogEC50 was -7.4 log M and -6.9 log M; the Top is 460 A.U. and 430 A.U.

With GFRLTNFGYFEPA (modifications not checked) [CaPep13A], in [11], the EC50, lycopene readout, strains preincubated, +CaBar1 was determined as 1000 nM; the EC50, lycopene readout, strains preincubated, -CaBar1 amounted to 80 nM; the Top was 820 A.U. and 590 A.U.
